In PMC10076671, “Spider venom-derived peptide JZTX-14 prevents migration and invasion of breast cancer cells via inhibition of sodium channels” (Frontiers in Pharmacology, 2023):
Where a SMILES comes first, the peptide text is derived from it. Bridges are numbered along the chain shown (N, C = ends).

Test system: MDA-MB-231 cells
Assay: RNA sequencing, differentially expressed genes
Format: cell-based, human
Settings: 12.5 μM, 48 h
Experimental: Total RNA was extracted from untreated (C) MDA-MB-231 cells and MDA-MB-231 cells treated with a concentration of 12.5 μM JZTX-14 (GL) for 48 h using TRIzol reagent. RNA concentration was first quantified using a NanoDrop 2000 spectrophotometer and further accurately quantified using an Agilent 2100/4200 for RNA sample mass and concentration. The extracted total RNA was stored at −70°C. The sample mRNA was enriched with magnetic beads with Oligo (dT), and then the mRNA was broken into short fragments which subsequently used as a template to synthesize the first strand of cDNA with six-base random primers. The second cDNA strand was synthesized by adding buffer, dNTPs, and enzymes, and the acquired double-stranded cDNA was purified, end-repaired, A-tailed, and connected to sequencing junctions. Next, the fragment size was selected and the cDNA library was enriched by PCR amplification, followed by accurate qualification of the effective concentration of the library using qPCR. […]
The reads after rRNA removal were compared with the reference genome using Hisat2 software. Gene level quantification was performed separately for each sample using FeatureCount and combined to obtain the gene expression matrix of all samples. Correlation coefficients between samples were calculated based on the expression values (FPKM) of genes in each sample. […]

SMILES: CC[C@H](C)[C@H](NC(=O)[C@@H]1CSSC[C@@H]2NC(=O)[C@@H]3CCCN3C(=O)[C@@H]3CCCN3C(=O)[C@H](CCC(N)=O)NC(=O)CNC(=O)[C@@H]3CCCN3C(=O)[C@H](Cc3c[nH]cn3)NC(=O)[C@@H]3CSSC[C@H](NC(=O)[C@H](C)NC(=O)[C@H](CC(C)C)NC(=O)CNC(=O)[C@H](CO)NC(=O)[C@H](CSSC[C@H](NC(=O)CN)C(=O)N[C@@H](CCC(N)=O)C(=O)N[C@@H](CCCCN)C(=O)N[C@@H](Cc4ccccc4)C(=O)N[C@@H](Cc4ccccc4)C(=O)N[C@@H](Cc4c[nH]c5ccccc45)C(=O)N[C@@H]([C@@H](C)O)C(=O)N3)NC2=O)C(=O)N[C@@H]([C@@H](C)O)C(=O)N[C@@H](Cc2c[nH]c3ccccc23)C(=O)N2CCC[C@H]2C(=O)N[C@@H]([C@@H](C)O)C(=O)N[C@@H](CCC(=O)O)C(=O)N[C@@H]([C@@H](C)CC)C(=O)N1)C(=O)N[C@@H](CC(C)C)C(N)=O [JZTX-14] (H-GCQKFFWTCHPGQPPCCSGLACTWPTEICIL-NH2; disulfide 2-17, 9-22, 16-29)
- Downregulated genes associated with migration and invasion: ANGPTL4, S100A4, GJB3, FBXO2, PLAC1, and HMGN5
- Upregulated genes associated with migration and invasion: IL-24-F and SERPINB2
